Values quoted from earlier work as cited in US20070178049A1, “Systems and methods for the delivery of corticosteroids having an enhanced pharmacokinetic profile” (Verus Pharmaceuticals, Inc., priority 2005, published 2007).

solubility in alcohols (alcohols): readily soluble
solubility in water (water): virtually insoluble
Structure (SMILES): CCCC1O[C@@H]2C[C@H]3[C@@H]4CCC5=CC(=O)C=C[C@]5(C)[C@H]4[C@@H](O)C[C@]3(C)[C@]2(C(=O)CO)O1 (stereo partly drawn) [budesonide, (R, S)-11β,16α,17,21-tetrahydroxypregna-1,4-diene-3,20-dione cyclic 16,17-acetal with butyraldehyde]
